Assay results taken from US8420614B2, “Compositions and methods for inhibiting or reversing fibrotic disorders” (Albany Medical College, priority 2007, dated 2013).

What was measured:
Assay type in all cases: cell-based, human
[1] = system: NADF; test: CyQUANT cell growth, NADF; conditions: serum-containing media; anti-TGF-β 20 μg/ml or TGF-β1 10 ng/ml
Description: (§1) All cells used in these studies were cultured (37° C., 5% CO2.) in serum-containing media which consisted of Dulbecco's modification of Eagle's Minimum Essential Medium, 10% fetal bovine serum and 1% penicillin-streptomycin (all of which were obtained from Gibco Invitrogen Corporation, Carlsbad, Calif.). NADF were purchased from Clonetics-Cambrex BioScience (Walkersville, Md.). HTSF were isolated from biopsies taken from hypertrophic scars resected therapeutically from pediatric patients at Shriner's Burn Hospital and Massachusetts General Hospital, (Boston, Mass.). Tissue was processed according to the protocol of Ronnov-Jessen and Peterson (1993) and as described in (Dabiri et al., 2006). All tissues were acquired anonymously under protocols approved by the relevant medical and ethical committees of the Shriner's Burn Center in accordance with the Declaration of Helsinki Principles and patients gave their written, informed consent.
(§2) Cell growth was measured using CyQUANT® Cell Proliferation Assay Kit (C-7026, Invitrogen, Carlsbad, Calif.). […] Plates were read on Spectra Max Gemini-EM (Molecular Devices, Sunnyvale, Calif.) with an excitation and emission spectrum 480 nm and 520 nm, respectively.

[2] = system: Hic-5; test: Western blot of Hic-5 expression, NADF; conditions: TGF-β1 10 ng/ml
Description: (§3) NADF and HTSF lysates were analyzed for protein expression by western blotting with the following primary antibodies at a concentration of 1:1000: cyclin D1, (BD-Biosciences; DCS-6, San Jose, Calif.), cyclin A, (Santa Cruz Biotech.; H 432, Santa Cruz, Calif.), p21^cip1 (BD-Biosciences; sx-118, San Jose, Calif.), p15^ink4b (Cell Signaling, Danvers, Mass.), Hic-5 (BD Transduction, Franklin Lakes, N.J.), RhoGDI (Santa Cruz Biotech, Santa Cruz, Calif.), H2A (Cell Signaling, Danvers, Mass.) and ERK½ (Santa Cruz Biotech, Santa Cruz, Calif.), Vinculin (Sigma Aldrich), SMCA (Sigma Aldrich), FN (Neomarkers), Collagen type I (Sigma Aldrich), Paxillin (Sigma Aldrich). Western blots were developed using SuperSignal chemiluminescent substrate (Pierce, Rockford, Ill.) and quantitated with a Fluor-S MultiImager and Quantity-One software (Bio-Rad, Hercules, Calif.). Membranes were stripped using Restore Stripping (Pierce, Rockford, Ill.) and reprobed (no more than once) with other antibodies.
Either NADF (5×10^3 cells) or HTSF (5×10^3 cells) were cultured in DMEM plus serum for 24 hrs with either TGF-β1 (10 ng/ml) or anti-TGF-β1 (20 μg/ml) where indicated. […] Protein expression was analyzed by western blot, as described above. […]

[3] = system: HTSF; test: CyQUANT cell growth, HTSF; conditions: serum-containing media; anti-TGF-β 20 μg/ml or TGF-β1 10 ng/ml
Description: as §1, §2

[4] = system: NADF; test: BrdU incorporation, NADF; conditions: 24 h BrdU pulse; TGF-β1 10 ng/ml
Description: HTSF (5×10^3 cells) or NADF (5×10^3 cells) were plated in serum free media (Dulbecco's […] 1:1, Hams F12 1:1, transferrin 5 μg/ml, insulin 5×10^−7M, ascorbate 0.2 mM, glutamine 1:100, penicillin-streptomycin 1:100) for 18 hrs in Labtek™ chambers (Nalge Nunc International, Naperville, Ill.) at 37° C. Cells were washed three times with Dulbecco's phosphate buffered saline (DPBS) (Gibco Invitrogen International, Carlsbad, Calif.) and to each well DMEM containing serum was added, 10 μg/ml of BrdU (Biodesign International, Saco, Me.), with or without the addition of 10 ng/ml of TGFβ1. In some wells anti-TGF-β (20 μg/ml) was also added as indicated. Cells were incubated (24 hrs), washed with DPBS, fixed with 3.7% formaldehyde (Sigma Chemical Co., St. Louis, Mo.) in DPBS (10 min), permeabilized with 0.5% Triton X-100 (5 min) (Sigma Chemical Co., St. Louis, Mo.), blocked (1 hr) with 2% bovine serum albumin (Sigma Chemical Co., St. Louis, Mo.) in PBS then DNAase (Promega, Madison, Wis.) treated for 30 min. […] Coverslips were mounted in Gelmount (Biomedia Corp., Biomedia Corp., Foster City, Calif.) and slides were analyzed on an Olympus BX60 microscope using 10× objective. […] The percent positive BrdU incorporation was determined by dividing the number of nuclei labeled with both BrdU (green) and Hoescht (blue) by the total number of nuclei (blue)×100.

[5] = system: SMCA in HTSF; test: SMCA expression (western blot, immunostaining), HTSF; conditions: TGF-β1 10 ng/ml, 5 days
Description: as §3
(§4) Cells were stained as previously described (Dabiri et al., 2006), with slight modification. Control or modified cells were cultured at 30% confluency in complete medium for 18 hours, then washed with Dulbecco's phosphate-buffered saline and serum-free medium was added, followed by 10 ng/ml of TGF-β1 or 20 ng/ml of anti-TGF-β1 (R&D Systems, Minneapolis, Minn.) where specified. […]

[6] = system: NADF; test: Floating collagen lattice contraction, NADF; conditions: TGF-β1 10 ng/ml; floating collagen lattice three days
Description: (§5) Before preparing the gels, 5 ml of BSA (Sigma) solution (0.1% BSA in PBS, filter sterilized) was pipetted into each well of a six-well plate, incubated at 37° C. for 1 hour. 1.4 ml of bovine dermal collagen Vitrogen (Cohesion, Palo Alto, Calif.) was mixed with 0.4 ml of 5×DMEM in a 15 ml centrifuge tube cooled on ice. The pH was adjusted to a range of 7.2-7.5, using a sterile solution of 1N NaOH. The control and modified cells were trypsinized from a confluent tissue culture plate and 0.2 ml of the cell suspension (containing 5×10^5 cells) was added to the collagen solution, gently mixed and poured into a well of the six-well plate. Collagen lattices were allowed to gel for 60 minutes in a 5% CO2 atmosphere at 37° C. After 60 minutes, the collagen lattices were detached from the surface of the well by rimming the lattice with a sterile spatula and gently swirling the six-well plate. 2 ml of serum-free medium was added to each well. Plates were incubated in a 5% CO2 atmosphere at 37° C. To measure contraction, the tissue culture dishes were periodically placed on top of a transparent metric ruler on an opaque background, and the diameters of the lattices were recorded.

[7] = system: cyclin A, cyclin D1, p21^cip1, p15^ink4b in NADF; test: Western blot of cell cycle proteins, NADF
Description: as §3

[8] = system: collagen type I and FN in NADF; test: Western blot of ECM proteins, NADF; conditions: TGF-β1 10 ng/ml, 5 days
Description: as §3

[9] = system: supermature focal adhesions in NADF; test: Focal adhesion measurements, NADF; conditions: TGF-β1 10 ng/ml for 5 days
Description: Cells were stained as previously described (Dabiri et al., 2006), with slight modification. Control or modified cells were cultured at 30% confluency in complete medium for 18 hours, then washed with Dulbecco's phosphate-buffered saline and serum-free medium was added, followed by 10 ng/ml of TGF-β1 or 20 ng/ml of anti-TGF-β1 (R&D Systems, Minneapolis, Minn.) where specified. Cells were allowed to incubate for 5 days. On the fifth day, cells were washed fixed, permeabilized, and blocked for 1 hour. Samples were then incubated sequentially with mAb against vinculin (1:400) (Sigma Chemical Co., St Louis, Mo.), and then with a mixture of goat anti-mouse Alexa Fluor 488 (1:1000) and TRITC-conjugated phalloidin (1:100). […] Images were captured with attached Cooke Sensicam digital camera and deconvolved using Slidebook 3.0.10.3 software (FFTW licensed from Massachusetts Institute of Technology, Cambridge, Mass.).
Focal adhesion measurements were performed as described previously (Dabiri et al., 2006). In brief, cells (n=20) were chosen that were not in contact with any other cell and were well spread. Images were observed using Olympus BX60 microscope equipped with an immersion oil objective (×60/1.25, phase) and captured as described above. Vinculin staining was measured for area (μm^2) of focal adhesion using Image Pro-Plus version 4.5.1.26 (Media Cybermatic, Silver Spring, Md.). […]

[10] = system: SMCA in NADF; test: SMCA expression (western blot, immunostaining), NADF; conditions: TGF-β1 10 ng/ml
Description: as §3, §4

[11] = system: HTSF; test: Floating collagen lattice contraction, HTSF; conditions: TGF-β1 10 ng/ml added to Hic-5 siRNA treated HTSF
Description: as §5

TGF-β1: recombinant, active TGF-β1 added exogenously (R&D Systems)
NADF proliferation (increase in cell number by day 3) [1]: statistically significant decrease in proliferation | expression of Hic-5 in NADF ([2]; 24 h): significantly increased the expression of Hic-5 | expression of Hic-5 in the nucleus in NADF ([2]; subcellular fractionation): significantly increased the expression of Hic-5 in the nucleus | HTSF proliferation (increase in cell number by day 3) [3]: did not significantly alter the growth | percent BrdU positive nuclei in NADF [4]: statistically significant decrease in the percent positive nuclei | increase in the percentage of positive SMCA cells in HTSF in which Hic-5 was genetically ablated [5]: 5 fold | decrease in collagen diameter by NADF [6]: 3 fold | cyclin A and cyclin D1 levels in NADF ([7]; 24 h, TGF-β1 10 ng/ml): decreased cyclin A and cyclin D1 levels | increase in p15^ink4b level in NADF compared to NADF without TGF-β1 ([7]; 24 h, TGF-β1 10 ng/ml): 5.25 fold | increase in p21^cip1 level in NADF compared to NADF without TGF-β1 ([7]; 24 h, TGF-β1 10 ng/ml): 2.5 fold | increase in expression of p15^ink4b in NADF ([7]; siRNA experiment, TGF-β1 10 ng/ml for 24 hrs, unaffected by knockdown of Hic-5): 4 fold | expression of collagen and FN in NADF [8]: significantly increased the expression of these ECM proteins | increase in the percentage of focal adhesions greater than 6 μm^2 in NADF [9]: ~10 fold | increase in percent positive SMCA cells in NADF ([10]; 5 days): 7 fold | expression of SMCA and Hic-5 in NADF ([10]; serum free media five days): both SMCA and Hic-5 were upregulated | ability of Hic-5 knocked-down HTSF to contract collagen [11]: fully rescued the ability of HTSF to contract collagen
